Results taken from patent US11643405B2, “Compound for treatment or prevention of liver diseases” (JIANGSU ATOM BIOSCIENCE AND PHARMACEUTICAL CO., LTD., priority 2018, dated 2023).
Marks after values point to notes of the source that are not given here.

System: zebrafish non-alcoholic fatty liver
Experiment: Fat reduction or elimination effect on thioacetamide-induced zebrafish non-alcoholic fatty liver (Oil Red O staining)
Assay type: in vivo
Conditions: for The total optical density of liver fat: mean ± SE, n = 10; for inhibition at 100 µM / inhibition at 200 µM: Danio rerio, read-out: Inhibition rate of liver steatosis
Method: 40 mM stock solution of test compounds 4, 5, 6, 7, 46, 67, 78, 85, 92 and 101 were prepared with DMSO, and stored in a refrigerator at −20° C. The positive control compound S-adenosylmethionine (SAM) was purchased from Aladdin Reagent (Shanghai) Co., Ltd., with the batch number F1523051, which was prepared into a 50 mM stock solution with DMSO. The control compound silymarin was purchased from Shanghai Dibai Biotechnology Co., Ltd., with the batch number EE09, which was prepared into a 40 mM stock solution with DMSO. Thioacetamide was purchased from Sigma-Aldrich, with the batch number BCBV3031, which wasprepared into a 1 M stock solution with DMSO. Oil Red O was purchased from Sigma-Aldrich, with the batch number SLBP5248V. 4% paraformaldehyde was purchased from Dingguo Biotechnology Co., Ltd., with the batch number 773001800. Propylene glycol was purchased from Sinopharm Chemical Reagent Co., Ltd., with the batch number 20170615.
The melanin allele mutant translucent Albino line zebrafish was reproduced in natural paired mating. The fish age was 3 days after fertilization, with 30 fish per experimental group.
The above zebrafish were raised in fish farming water at 28° C. (water quality: 200 mg instant sea salt was added to 1 L of reverse osmosis water, conductivity was 480-510 μS/cm; pH was 6.9-7.2; hardness was 53.7-71.6 mg/L CaCOs), the experimental animal use license number was: SYXK (Zhejiang) 2012-0171. Feeding management met the requirements of international AAALAC certification.
Three days after fertilization, the normal melanin allele mutant translucent Albino strain of zebrafish was randomly selected and placed in a six well plate with 30 fish per well (i.e. each experimental group), and then thioacetamide with the final concentration of 7 mM was used to treat zebrafish for 72 hours to establish the non-alcoholic fatty liver model.
The zebrafish were transferred to a six-well plate, with 30 fish per well (i.e., each experimental group) randomly. Non-alcoholic fatty liver model in zebrafish were induced by thioacetamide. 40 mM test compounds 4, 5, 6, 7, 46, 67, 78, 85, 92 and 101 were quantitatively transferred to a six-well plate, and diluted with water to the corresponding concentration. Test compounds 4, 5, 6 and 7 were formulated into two dose groups with final concentration of 100 μM and 200 μM, respectively; test compound 46 was formulated into a dose group with final concentration of 200 μM; test compounds 67, 78, 85, 92 and 101 were formulated into dose groups with a final concentration of 100 μM; 50 mM positive control SAM was formulated with water to a dose group with final concentration of 50 μM, and a 40 mM positive control silymarin was formulated with water to two concentration dose groups with final concentration of 100 μM and 200 μM. A normal control group (zebrafish treated with fish farming water) and a model control group were set at the same time, and the total volume of each well was 3 mL. Except for the normal control group, the other experimental groups were treated with thioacetamide for 72 hours and stained with Oil Red O. After staining, 10 zebrafish were randomly selected from each experimental group and photographed under a dissecting microscope, NIS-Elements D 3.10 advanced image processing software was used to perform image analysis and collect data, the total optical density (S) of zebrafish liver fat was statistically analyzed, and for the inhibitory effect of each experimental group on liver steatosis of zebrafishwas evaluated by the following formula, the results of statistical analysis were expressed as mean±SE: Inhibition rate of liver steatosis (%)=[S(model control group)−S(test compound group)]/[S(model control group)−S(normal control group)]×100%
Statistical analysis was performed using analysis of variance and Dunnett's T-test, and p<0.05 indicated a significant difference. […]

| Compound | Therapeutic effect on non-alcoholic fatty liver of zebrafish (in words) (100 μM) | The total optical density of liver fat (100 μM) [Pixels] | Therapeutic effect on zebrafish non-alcoholic fatty liver (in words) (200 μM) | The total optical density of liver fat (200 μM) [Pixels] | inhibition at 100 µM (100 μM) [%] | inhibition at 200 µM (200 μM) [%] | Inhibition rate of liver steatosis (100 μM) | Inhibition rate of liver steatosis (50 μM (SAM)) [%] | The total optical density of liver fat (50 μM (SAM)) [Pixels] |
| --- | --- | --- | --- | --- | --- | --- | --- | --- | --- |
| COc1cc([C@H]2Oc3cc([C@H]4Oc5cc(O)cc(O)c5C[C@@H]4O)ccc3O[C@@H]2CO)ccc1O [Compound 6, (2R,3S)-2-{(2R,3R)-3-(4-hydroxy-3-methoxyphenyl)-2-hydroxymethyl-2,3-dihydrobenzo[b][1,4]dioxan-6-yl}chroman-3,5,7-triol] | significant therapeutic effects | 19868 ± 556 | significant therapeutic effect | 18157 ± 572 | 58 | 92 |  |  |  |
| COc1cc(OC)c2c(c1)OC(c1cc(O)c3c(c1)OC(c1ccc(O)c(OC)c1)C(CO)O3)C(O)C2O (stereo not drawn) [Compound 92, 2-{8-hydroxy-3-(4-hydroxy-3-methoxyphenyl)-2-hydroxymethyl-2,3-dihydrobenzo[b][1,4]dioxan-6-yl}-5,7-dimethoxychroman-3,4-diol] | significant therapeutic effects | 17836 ± 639 |  |  | 98 |  |  |  |  |
| COc1cc([C@H]2Oc3cc([C@H]4Oc5cc(O)cc(O)c5/C(=N/O)[C@@H]4O)ccc3O[C@@H]2CO)ccc1O [Compound 46, (2R,3S)-3,5,7-trihydroxy-2-{(2R,3R)-3-(4-hydroxy-3-methoxyphenyl)-2-hydroxymethyl-2,3-dihydrobenzo[b][1,4]dioxan-6-yl}chroman-4-one oxime] |  |  | significant therapeutic effect | 19767 ± 814 |  | 60 |  |  |  |
| COc1cc([C@H]2Oc3cc([C@H]4Oc5cc(O)cc(O)c5C(O)[C@@H]4O)ccc3O[C@@H]2CO)ccc1O (stereo partly drawn) [Compound 5, (2R,3S)-2-{(2R,3R)-3-(4-hydroxy-3-methoxyphenyl)-2-hydroxymethyl-2,3-dihydrobenzo[b][1,4]dioxan-6-yl}chroman-3,4,5,7-tetraol] | significant therapeutic effects | 18496 ± 862 | significant therapeutic effect | 18452 ± 795 | 84 | 86 | 85** % |  |  |
| C[S+](CC[C@H](N)C(=O)[O-])C[C@H]1O[C@@H](n2cnc3c(N)ncnc32)[C@H](O)[C@@H]1O (stereo partly drawn) [S-adenosylmethionine, reference compound] |  |  |  |  |  |  |  | 89 | 18301 ± 783 |
| COc1cc(C2Oc3cc(C4Oc5cc(F)cc(O)c5C(O)C4O)cc(O)c3OC2CO)ccc1O (stereo not drawn) [Compound 101, 7-fluoro-2-{8-hydroxy-3-(4-hydroxy-3-methoxyphenyl)-2-hydroxymethyl-2,3-dihydrobenzo[b][1,4]dioxan-6-yl}chroman-3,4,5-triol] | significant therapeutic effects | 18090 ± 837 |  |  | 93 |  |  |  |  |
| COc1cc(OC)c2c(c1)OC(c1cc(O)c3c(c1)OC(c1ccc(O)c(OC)c1)C(CO)O3)C(O)C2 (stereo not drawn) [Compound 78, 7-{(3-hydroxy-5,7-dimethoxychroman-2-yl)-2-(4-hydroxy-3-methoxyphenyl)-3-hydroxymethyl-2,3-dihydrobenzo[b][1,4]dioxane}-5-ol] | significant therapeutic effects | 19665 ± 1330 |  |  | 62 |  |  |  |  |
